Reference: ChEMBL document CHEMBL3739404, “Arylsulfonamide derivatives of (aryloxy)ethylpiperidines as selective 5-HT7receptor antagonists and their psychotropic properties” (Medchemcomm, 2015)
Activity calls are given as the source filed them. The rule behind the calls is not given here.

Key:
HEK293 = assay: Selectivity ratio of Ki for human 5-HT1A receptor to Ki for human 5-HT7B receptor expressed in HEK293 cells; type: cell-based
[1] = molecular target: T1, 5-hydroxytryptamine receptor 1A (Homo sapiens, UniProt P08908); assay: Displacement of [3H]-8-OH-DPAT from human serotonin 5-HT1A receptor expressed in HEK293 cells after 1 hr by microplate reader based assay; type: cell-based
T1 sequence (P08908 whole entry): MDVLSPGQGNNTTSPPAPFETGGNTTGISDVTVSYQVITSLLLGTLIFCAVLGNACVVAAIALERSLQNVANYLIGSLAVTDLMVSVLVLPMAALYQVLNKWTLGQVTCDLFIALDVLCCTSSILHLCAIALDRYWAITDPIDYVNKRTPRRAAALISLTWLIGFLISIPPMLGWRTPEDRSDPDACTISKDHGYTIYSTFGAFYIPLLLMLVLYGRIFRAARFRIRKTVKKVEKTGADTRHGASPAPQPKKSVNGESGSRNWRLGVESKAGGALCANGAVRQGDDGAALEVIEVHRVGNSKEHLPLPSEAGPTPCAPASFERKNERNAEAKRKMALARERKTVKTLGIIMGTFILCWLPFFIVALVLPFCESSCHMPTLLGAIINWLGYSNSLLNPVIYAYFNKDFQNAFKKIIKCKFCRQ

[2] = molecular target: 5-hydroxytryptamine receptor 6 (Homo sapiens, UniProt P50406); assay: Displacement of [3H]-LSD from human serotonin 5-HT6 receptor expressed in HEK293 cells after 1 hr by microplate reader based assay; type: cell-based
[3] = molecular target: T2, 5-hydroxytryptamine receptor 7 (Homo sapiens, UniProt P34969); assay: Displacement of [3H]-5-carboxyamidotryptamine from human serotonin 5-HT7B receptor expressed in HEK293 cells after 1 hr by microplate reader based assay; type: cell-based
[4] = molecular target: T3, Adrenergic receptor alpha-1 (Rattus norvegicus, UniProt P15823+P23944+P43140); assay: Displacement of [3H]-Prazosin from alpha-1 adrenergic receptor in rat cerebral cortex after 1 hr by microplate reader based assay; type: tissue-based
T3 sequence (P15823 whole entry): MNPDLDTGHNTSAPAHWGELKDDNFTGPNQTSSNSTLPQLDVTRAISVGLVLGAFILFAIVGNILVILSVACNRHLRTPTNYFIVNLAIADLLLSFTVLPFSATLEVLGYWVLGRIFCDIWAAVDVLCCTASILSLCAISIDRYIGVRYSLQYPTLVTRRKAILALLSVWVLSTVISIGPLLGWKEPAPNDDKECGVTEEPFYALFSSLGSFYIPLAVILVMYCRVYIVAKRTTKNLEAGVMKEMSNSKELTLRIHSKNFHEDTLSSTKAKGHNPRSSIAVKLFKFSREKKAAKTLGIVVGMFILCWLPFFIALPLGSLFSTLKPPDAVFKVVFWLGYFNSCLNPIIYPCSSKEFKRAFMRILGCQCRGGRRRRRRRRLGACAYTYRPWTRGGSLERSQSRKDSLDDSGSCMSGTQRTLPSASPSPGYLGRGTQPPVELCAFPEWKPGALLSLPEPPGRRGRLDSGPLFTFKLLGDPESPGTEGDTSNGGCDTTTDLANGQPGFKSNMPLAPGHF
T3 sequence (P23944 whole entry): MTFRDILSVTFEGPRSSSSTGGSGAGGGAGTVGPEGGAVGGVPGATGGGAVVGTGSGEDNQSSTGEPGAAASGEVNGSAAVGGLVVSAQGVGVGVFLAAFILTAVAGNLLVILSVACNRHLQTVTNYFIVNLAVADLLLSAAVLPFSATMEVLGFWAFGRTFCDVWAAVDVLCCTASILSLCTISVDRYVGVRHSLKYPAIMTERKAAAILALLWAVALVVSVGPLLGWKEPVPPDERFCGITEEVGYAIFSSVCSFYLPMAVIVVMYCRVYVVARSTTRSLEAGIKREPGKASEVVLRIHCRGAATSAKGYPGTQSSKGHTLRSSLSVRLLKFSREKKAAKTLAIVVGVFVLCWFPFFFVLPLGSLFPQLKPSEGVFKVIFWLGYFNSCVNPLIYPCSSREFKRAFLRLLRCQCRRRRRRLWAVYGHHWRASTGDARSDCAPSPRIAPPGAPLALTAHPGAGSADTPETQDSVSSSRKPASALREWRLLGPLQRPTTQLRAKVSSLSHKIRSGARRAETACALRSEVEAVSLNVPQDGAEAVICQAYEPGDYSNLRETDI
T3 sequence (P43140 whole entry): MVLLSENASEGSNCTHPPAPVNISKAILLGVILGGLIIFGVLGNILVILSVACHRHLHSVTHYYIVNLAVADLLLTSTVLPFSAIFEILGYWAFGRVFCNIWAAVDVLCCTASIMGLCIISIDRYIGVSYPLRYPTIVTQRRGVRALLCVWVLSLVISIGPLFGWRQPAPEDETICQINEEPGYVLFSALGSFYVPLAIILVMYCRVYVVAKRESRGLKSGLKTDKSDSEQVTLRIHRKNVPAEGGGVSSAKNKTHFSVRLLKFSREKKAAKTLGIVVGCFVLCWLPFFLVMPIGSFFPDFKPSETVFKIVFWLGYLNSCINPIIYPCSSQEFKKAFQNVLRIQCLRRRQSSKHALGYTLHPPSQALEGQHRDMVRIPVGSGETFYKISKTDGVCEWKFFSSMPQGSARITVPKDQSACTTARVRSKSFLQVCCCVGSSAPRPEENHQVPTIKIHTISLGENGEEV

[5] = molecular target: T2, 5-hydroxytryptamine receptor 7; assay: Antagonist activity at human serotonin 5-HT7B receptor expressed in CHO cells assessed as inhibition of serotonin-induced cAMP production at 1 uM after 30 mins by HTRF assay relative to control; type: functional, cell-based
Rattus norvegicus = assay: Pro-cognitive effect in Sprague-Dawley rat assessed as reduction in PCP-induced memory deficits administered ip 1 hr 15 mins before familiarization phase by novel object recognition test; type: functional, organism-based
D(2) dopamine receptor = D(2) dopamine receptor (Homo sapiens, UniProt P14416); assay: Displacement of [3H]-Raclopride from human dopamine D2L receptor expressed in HEK293 cells after 1 hr by microplate reader based assay; type: cell-based
Mus musculus [6] = assay: Anxiolytic-like activity in albino Swiss mouse assessed as increase in number of punished crossings at 1.25 mg/kg, ip dosed 60 mins before test by four plate test; type: functional
[7] = molecular target: Beta-1 adrenergic receptor (Homo sapiens) (UniProt P08588); assay: Binding affinity to beta-1 adrenergic receptor (unknown origin) at 1 uM
[8] = molecular target: T4, Muscarinic acetylcholine receptor M1 (Homo sapiens) (UniProt P11229); assay: Binding affinity to muscarinic acetylcholine receptor M1 (unknown origin) at 1 uM
T4 sequence (whole entry): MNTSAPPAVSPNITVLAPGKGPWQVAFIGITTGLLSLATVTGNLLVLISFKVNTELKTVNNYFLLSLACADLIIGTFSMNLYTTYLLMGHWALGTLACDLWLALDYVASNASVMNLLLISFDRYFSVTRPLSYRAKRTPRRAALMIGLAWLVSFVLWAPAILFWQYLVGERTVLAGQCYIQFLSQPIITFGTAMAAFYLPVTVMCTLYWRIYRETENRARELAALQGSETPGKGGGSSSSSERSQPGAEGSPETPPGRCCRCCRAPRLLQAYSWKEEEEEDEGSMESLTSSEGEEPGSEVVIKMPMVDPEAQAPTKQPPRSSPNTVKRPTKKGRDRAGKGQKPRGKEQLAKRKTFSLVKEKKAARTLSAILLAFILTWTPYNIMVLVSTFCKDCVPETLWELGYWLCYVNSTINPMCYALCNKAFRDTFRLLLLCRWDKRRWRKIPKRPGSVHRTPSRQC

Mus musculus [9] = assay: Toxicity in albino Swiss mouse assessed as effect on spontaneous locomotor activity at 1.25 mg/kg, ip dosed 60 mins before test measured for 1 min 15 secs by M3 multichannel activity test; type: organism-based; conditions: in vivo
[10] = molecular target: T2, 5-hydroxytryptamine receptor 7; assay: Antagonist activity at human 5-HT7B receptor expressed in HEK293 cells assessed as inhibition of 5-carboxyamidotryptamine-induced cAMP production after 30 mins by TR-FRET assay; type: functional, cell-based
[11] = molecular target: Histamine H1 receptor (Homo sapiens) (UniProt P35367); assay: Binding affinity to histamine H1 receptor (unknown origin) at 1 uM
Mus musculus [12] = assay: Toxicity in albino Swiss mouse assessed as effect on spontaneous locomotor activity at 2.5 mg/kg, ip dosed 60 mins before test measured for 2 to 6 mins by M3 multichannel activity test; type: organism-based; conditions: in vivo
Mus musculus [13] = assay: Antidepressant-like activity in albino Swiss mouse assessed as reduction in immobility time at 10 mg/kg, ip dosed 60 mins before test by forced swim test; type: functional
Mus musculus [14] = assay: Toxicity in ip dosed albino Swiss mouse assessed as effect on spontaneous locomotor activity dosed 60 mins before test measured for 1 min 15 secs by M3 multichannel activity test; type: organism-based; conditions: in vivo
[15] = molecular target: T2, 5-hydroxytryptamine receptor 7; assay: Antagonist activity at human serotonin 5-HT7B receptor expressed in CHO cells assessed as inhibition of serotonin-induced cAMP production after 30 mins by HTRF assay; type: functional, cell-based
Mus musculus [16] = assay: Toxicity in albino Swiss mouse assessed as effect on spontaneous locomotor activity at 5 mg/kg, ip dosed 60 mins before test measured for 2 to 6 mins by M3 multichannel activity test; type: organism-based; conditions: in vivo

D(2) dopamine receptor, sequence (P14416 whole entry): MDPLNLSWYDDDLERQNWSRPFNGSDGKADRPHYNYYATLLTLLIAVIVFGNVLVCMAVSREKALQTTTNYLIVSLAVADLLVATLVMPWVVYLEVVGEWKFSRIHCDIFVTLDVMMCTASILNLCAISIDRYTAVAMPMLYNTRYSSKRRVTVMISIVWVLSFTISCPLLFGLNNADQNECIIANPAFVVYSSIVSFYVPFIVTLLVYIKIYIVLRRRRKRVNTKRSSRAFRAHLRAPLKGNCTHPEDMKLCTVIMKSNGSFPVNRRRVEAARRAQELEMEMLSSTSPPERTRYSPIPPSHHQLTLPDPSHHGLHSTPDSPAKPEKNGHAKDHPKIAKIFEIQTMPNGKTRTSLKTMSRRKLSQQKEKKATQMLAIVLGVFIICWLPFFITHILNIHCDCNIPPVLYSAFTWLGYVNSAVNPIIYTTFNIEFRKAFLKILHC
T2 sequence (P34969 whole entry): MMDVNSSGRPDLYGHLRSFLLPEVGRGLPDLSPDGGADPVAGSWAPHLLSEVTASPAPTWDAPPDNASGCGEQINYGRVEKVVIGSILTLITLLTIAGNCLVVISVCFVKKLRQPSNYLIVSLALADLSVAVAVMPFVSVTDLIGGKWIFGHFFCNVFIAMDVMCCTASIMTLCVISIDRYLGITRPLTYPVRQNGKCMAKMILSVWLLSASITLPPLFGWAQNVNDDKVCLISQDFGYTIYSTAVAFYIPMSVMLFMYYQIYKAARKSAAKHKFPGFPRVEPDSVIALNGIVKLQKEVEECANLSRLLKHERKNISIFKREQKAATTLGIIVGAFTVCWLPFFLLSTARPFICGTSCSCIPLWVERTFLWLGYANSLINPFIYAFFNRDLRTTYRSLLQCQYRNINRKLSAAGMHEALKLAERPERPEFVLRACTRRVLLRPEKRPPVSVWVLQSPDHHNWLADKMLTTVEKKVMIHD
5-hydroxytryptamine receptor 6, sequence (P50406 whole entry): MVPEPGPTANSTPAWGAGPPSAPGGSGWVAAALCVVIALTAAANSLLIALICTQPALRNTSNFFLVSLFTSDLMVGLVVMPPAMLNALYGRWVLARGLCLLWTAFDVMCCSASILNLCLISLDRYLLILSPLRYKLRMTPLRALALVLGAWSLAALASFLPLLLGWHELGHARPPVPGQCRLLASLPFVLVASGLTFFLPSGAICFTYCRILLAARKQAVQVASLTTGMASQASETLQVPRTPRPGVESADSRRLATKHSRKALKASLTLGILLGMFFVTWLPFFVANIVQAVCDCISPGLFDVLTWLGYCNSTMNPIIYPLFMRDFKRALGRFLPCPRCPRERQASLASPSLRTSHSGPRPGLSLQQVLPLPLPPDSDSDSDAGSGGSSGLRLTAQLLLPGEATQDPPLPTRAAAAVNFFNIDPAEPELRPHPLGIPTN
Histamine H1 receptor (Homo sapiens), sequence (P35367 whole entry): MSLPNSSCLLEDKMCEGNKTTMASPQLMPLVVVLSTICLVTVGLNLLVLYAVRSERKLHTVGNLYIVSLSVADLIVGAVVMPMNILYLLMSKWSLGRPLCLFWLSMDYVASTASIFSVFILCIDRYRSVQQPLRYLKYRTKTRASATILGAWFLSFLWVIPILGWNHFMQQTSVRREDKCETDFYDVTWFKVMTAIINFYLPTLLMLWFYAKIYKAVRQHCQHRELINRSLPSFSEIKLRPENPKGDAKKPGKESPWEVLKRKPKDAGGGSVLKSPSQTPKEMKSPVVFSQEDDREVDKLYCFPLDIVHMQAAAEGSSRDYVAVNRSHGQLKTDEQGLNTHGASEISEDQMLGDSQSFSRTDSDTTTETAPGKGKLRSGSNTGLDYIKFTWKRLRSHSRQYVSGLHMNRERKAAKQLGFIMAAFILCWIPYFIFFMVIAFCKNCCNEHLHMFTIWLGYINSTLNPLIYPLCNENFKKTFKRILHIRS
Beta-1 adrenergic receptor (Homo sapiens), sequence (P08588 whole entry, looked up): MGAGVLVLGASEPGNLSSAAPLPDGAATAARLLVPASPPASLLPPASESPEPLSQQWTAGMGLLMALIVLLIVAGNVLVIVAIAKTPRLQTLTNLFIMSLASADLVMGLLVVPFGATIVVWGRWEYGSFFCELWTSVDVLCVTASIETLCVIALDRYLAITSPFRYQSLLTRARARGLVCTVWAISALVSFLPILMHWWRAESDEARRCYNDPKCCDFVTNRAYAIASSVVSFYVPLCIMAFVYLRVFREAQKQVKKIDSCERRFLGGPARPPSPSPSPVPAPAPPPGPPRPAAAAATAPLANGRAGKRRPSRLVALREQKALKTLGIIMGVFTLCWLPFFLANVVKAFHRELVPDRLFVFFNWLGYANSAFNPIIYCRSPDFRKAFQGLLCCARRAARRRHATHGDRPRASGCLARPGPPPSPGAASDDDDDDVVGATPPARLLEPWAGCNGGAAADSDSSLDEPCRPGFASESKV

Ki [1]	Ki [3]	Structure (SMILES)	Ratio Ki (HEK293)	other results
190 nM	–	O=S(=O)(NC1CCN(CCOc2ccccc2-c2ccccc2)CC1)c1ccc(Cl)s1	16	–
234 nM	6 nM	O=S(=O)(NC1CCN(CCOc2ccccc2-c2ccccc2)CC1)c1cccc(Cl)c1	33	Ki [2]: 276 nM; Ki [4]: 2019 nM; inhibition [5]: 95%; Activity (Rattus norvegicus): Dose-dependent effect; Ki (D(2) dopamine receptor): 85 nM
74 nM	44 nM	CC(C)CS(=O)(=O)NC1CCN(CCOc2ccccc2-c2ccccc2)CC1	2	–
249 nM	42 nM	CC(C)c1ccccc1OCCN1CCC(NS(=O)(=O)c2ccccc2)CC1	6	–
321 nM	19 nM	Cn1cc(S(=O)(=O)NC2CCN(CCOc3ccccc3-c3ccccc3)CC2)cn1	17	–
373 nM	28 nM	CC(C)c1ccccc1OCCN1CCC(NS(=O)(=O)c2ccc(F)c(F)c2)CC1	14	–
279 nM	49 nM	O=S(=O)(NC1CCN(CCOc2ccccc2-c2ccccc2)CC1)c1ccccc1	6	–
159 nM	7 nM	O=S(=O)(NC1CCN(CCOc2ccccc2-c2ccccc2)CC1)c1ccc(F)cc1	23	–
232 nM	7 nM	CC(C)c1ccccc1OCCN1CCC(NS(=O)(=O)c2cccc3ncccc23)CC1	33	Ki [2]: 233 nM; Ki [4]: 712 nM; inhibition [5]: 96%; Activity (Rattus norvegicus): Dose-dependent effect; Ki (D(2) dopamine receptor): 104 nM
356 nM	9 nM	CC(C)c1ccccc1OCCN1CCC(NS(=O)(=O)c2cccc(F)c2)CC1	–	Ki [2]: 471 nM; Activity (Mus musculus [6]): 75%; Activity [7]: < 10%; Activity [8]: < 10%; Activity (Rattus norvegicus): Dose-dependent effect; Activity (Mus musculus [9]): Non-toxic; Kb [10]: 26 nM; Activity [11]: < 74%; Ki (D(2) dopamine receptor): 102 nM; Activity (Mus musculus [12]): Non-toxic
368 nM	36 nM	O=S(=O)(NC1CCN(CCOc2ccccc2-c2ccccc2)CC1)c1cccc(F)c1	10	–
102 nM	8 nM	O=S(=O)(NC1CCN(CCOc2ccccc2-c2ccccc2)CC1)c1cccc2ncccc12	13	–
208 nM	8 nM	CC(C)c1ccccc1OCCN1CCC(NS(=O)(=O)c2cc(F)ccc2F)CC1	26	Ki [2]: 324 nM; Ki [4]: 589 nM; inhibition [5]: 84%; Activity (Mus musculus [13]): Active; Ki (D(2) dopamine receptor): 147 nM
178 nM	8 nM	CC(C)c1ccccc1OCCN1CCC(NS(=O)(=O)c2cccc(Cl)c2)CC1	22	–
–	–	CC(C)c1ccccc1OCCN1CCC(NS(=O)(=O)c2ccccc2F)CC1	–	Ki [2]: 240 nM; Activity (Mus musculus [14]): Non-toxic; Ki [4]: 629 nM; Kb [15]: 1 nM; Activity [7]: < 10%; Activity [8]: < 10%; Activity (Rattus norvegicus): Dose-dependent effect; Activity (Mus musculus [16]): Non-toxic; Kb [10]: 12 nM; Activity [11]: < 74%; Ki (D(2) dopamine receptor): 51 nM
278 nM	200 nM	CC(C)CS(=O)(=O)NC1CCN(CCOc2ccccc2C(C)C)CC1	1	–
–	–	O=S(=O)(NC1CCN(CCOc2ccccc2-c2ccccc2)CC1)c1ccc(F)c(F)c1	45	Ki [4]: 2541 nM
616 nM	19 nM	CC(C)c1ccccc1OCCN1CCC(NS(=O)(=O)c2cnn(C)c2)CC1	32	Ki [2]: 641 nM; Ki [4]: 389 nM; inhibition [5]: 85%; Ki (D(2) dopamine receptor): 140 nM
74 nM	9 nM	O=S(=O)(NC1CCN(CCOc2ccccc2-c2ccccc2)CC1)c1cncc2ccccc12	8	–
455 nM	24 nM	CC(C)c1ccccc1OCCN1CCC(NS(=O)(=O)c2ccc(Cl)s2)CC1	19	–
103 nM	21 nM	CC(C)c1ccccc1OCCN1CCC(NS(=O)(=O)c2cncc3ccccc23)CC1	5	–
183 nM	7 nM	O=S(=O)(NC1CCN(CCOc2ccccc2-c2ccccc2)CC1)c1cc(F)ccc1F	26	–
